Assay results from patent US11298334B2, “Use of isothiocyanate compounds” (JC (WUXI) COMPANY, INC., priority 2016, dated 2022).

Legend:
[1] = system: SD rats; assay: Hypolipidemic activity in rats: serum triglyceride after 6 months oral gavage; format: in vivo, rat; details: for TG (serum triglyceride level): at terminal of administration, x ± SD, n = 14
Procedure: Reagent: phenylethyl isothiocyanate, synthesized by Wuxi Jiexi Pharmaceutical Technology Co., Ltd. The chemical construction was determined by NMR, UV, IR, MS, etc., and its content and purity were determined by HPLC (>99%); Fulinmen Brand corn oil, manufactured by Dongliang Industry (Zhangjiagang) Co., Ltd.
Animals: Clean SD rats, half male and half female, weighed 80-100 g, were provided by Shanghai Slac Laboratory Animal Co., Ltd. Free access to drinking water, ambient temperature of 20-25° C., relative humidity of 40%-70%.
Experimental methods: Male rats with 123-149 g of body weight were randomly divided into 4 groups according to their body weights. Female rats with 116-142 g of body weight were randomly divided into 4 groups according to body weights. In the control group and high dose group, there were 60 in each group. In the medium-dose and low-dose groups, there were 40 in each group, half male and half female. 0, 20, 60, 120 mg/kg of phenethyl isothiocyanate was administered by oral gavage, wherein the test drug was diluted with corn oil. The rats were administered continuously for 6 months, and administered 6 days a week, and administered at the same time every morning.
Observation items: blood biochemical examination.

[2] = system: patients with benign prostatic hyperplasia; assay: Multicenter randomized double-blind placebo-controlled trial, 24 weeks: serum triglyceride, lipoprotein cholesterol, total bilirubin; format: in vivo, human; details: for serum high-density lipoprotein, average change value compared with baseline / serum high-density lipoprotein, percentage of average change compared with baseline: Centers No. 11, 13 and 14
Procedure: A multicenter, randomized, double-blind, placebo parallel control design was used to preliminarily evaluate the safety and efficacy of phenylethyl isothiocyanate capsules on the treatment of BPH patients. Subjects meeting the entry criteria were randomly assigned to any of the following four groups at a ratio of 1:1:1:1: administration group (Group A): phenylethyl isothiocyanate 10 mg/time, 3 times a day; administration group (group D): phenylethyl isothiocyanate 20 mg/time, 3 times a day; administration group (group B): phenylethyl isothiocyanate 30 mg/time, 3 times a day; placebo group (group C): phenylethyl isothiocyanate placebo 1 capsule/time, 3 times a day. Oral administration was continued for 24 weeks. Men between the ages of 50 and 75, healthy, with moderate benign prostatic hyperplasia, no signs of prostate cancer. A total of 240 men participated in the six-month trial. Effectiveness: 1. benign prostatic hyperplasia: IPSS, QOL, prostate volume, the maximal urinary flow rate, residual urine; 2. triglycerides; 3. lipoprotein cholesterol; 4. total bilirubin. Safety: occurrence, process, and solution of all adverse events during treatment. Among the 14 centers in the clinical trial, the serum triglyceride levels and high-density lipoprotein and low-density lipoprotein levels in serum of the subjects were all detected in the center No. 11, center No. 13, and center No. 14.

[3] = system: volunteers with benign prostatic hyperplasia accompanied by elevated bilirubin; assay: Auxiliary detection on total bilirubin and blood lipid, 24 weeks; format: in vivo, human; details: 10, 20 or 30 mg 3 times a day oral
Procedure: Using the same method as described in Example 2, 24 volunteers with benign prostatic hyperplasia accompanied by elevated bilirubin were recruited. Using the same manner as described in Example 2, subjects meeting the entry criteria were randomly assigned into any of the following four groups at a ratio of 1:1:1:1: administration group (Group A): phenylethyl isothiocyanate 10 mg/time, 3 times a day; administration group (Group D): Phenylethyl isothiocyanate 20 mg/time, 3 times a day; administration group (Group B): phenylethyl isothiocyanate 30 mg/time, 3 times a day; placebo group (C group): phenylethyl isothiocyanate placebo 1 capsule/time, 3 times a day. Oral administration was continued for 24 weeks. The effectiveness and safety of the experiment were evaluated. Effectiveness: 1. benign prostatic hyperplasia: IPSS, QOL, prostate volume, maximal urinary flow rate, residual urine; 2. triglycerides; 3. lipoprotein cholesterol; 4. total bilirubin. Safety: occurrence, process, and solution of all adverse events during treatment.

[4] = system: volunteers with only hyperlipidemia; assay: Auxiliary detection on blood lipids, 6 weeks; format: in vivo, human; details: 10, 20 or 30 mg 3 times a day oral
Procedure: Using the same method as described in Example 3 except that 8 volunteers with only hyperlipidemia were recruited and using the same method as described in Example 3. The volunteers were randomly assigned into the following four groups at a ratio of 1:1:1:1: administration group (Group A): phenylethyl isothiocyanate 10 mg/time, 3 times a day; administration group (Group D): phenylethyl isothiocyanate 20 mg/time, 3 times a day; administration group (Group B): phenylethyl isothiocyanate 30 mg/time, 3 times a day; placebo group (Group C): phenylethyl isothiocyanate placebo 1 capsule/time, 3 times a day. Oral administration was continued for 6 weeks.

[5] = system: volunteers with only hyperbilirubinemia; assay: Auxiliary detection on total bilirubin, 6 weeks; format: in vivo, human; details: 10, 20 or 30 mg 3 times a day oral
Procedure: The method was the same as described in Example 3, except that 8 volunteers with only hyperbilirubinemia were recruited in the medical research peers. Using the same manner as described in Example 3, the subjects were randomly assigned into any one of the following four groups at a ratio of 1:1:1:1: administration group (Group A): phenylethyl isothiocyanate 10 mg/time, 3 times a day; administration group (Group D): phenylethyl isothiocyanate 20 mg/time, 3 times a day; administration group (Group B): phenylethyl isothiocyanate 30 mg/time, 3 times a day; placebo group (C group): phenylethyl isothiocyanate placebo 1 capsule/time, 3 times a day. Oral administration was continued for 6 weeks.

With `S=C=NCCc1ccccc1` [phenylethyl isothiocyanate] the “decrease of triglycerides in serum compared with the 0 mg/kg group” value (“decrease of triglycerides in serum” for short) ([1]; female rats, 20 mg/kg) was 25.5%, the “TG (serum triglyceride level)” value ([1]; female rats, 20 mg/kg oral gavage) was 2.13 ± 0.82 mmol/L and the “decrease of triglycerides in serum” value ([1]; female rats, 60 mg/kg) was 41.2%. The “TG (serum triglyceride level)” value ([1]; female rats, 60 mg/kg oral gavage) was 1.68 ± 0.63 mmol/L, the “decrease of triglycerides in serum” value ([1]; female rats, 120 mg/kg) was 52.8% and the “TG (serum triglyceride level)” value ([1]; female rats, 120 mg/kg oral gavage) was 1.35 ± 0.72 mmol/L. The “decrease of triglycerides in serum” value ([1]; male rats, 20 mg/kg) was 24.1%, the “TG (serum triglyceride level)” value ([1]; male rats, 20 mg/kg oral gavage) was 1.73 ± 0.79 mmol/L and the “decrease of triglycerides in serum” value ([1]; male rats, 60 mg/kg) was 44.3%. The “TG (serum triglyceride level)” value ([1]; male rats, 60 mg/kg oral gavage) was 1.27 ± 0.38 mmol/L, the “decrease of triglycerides in serum” value ([1]; male rats, 120 mg/kg) was 56.1% and the “TG (serum triglyceride level)” value ([1]; male rats, 120 mg/kg oral gavage) was 1.00 ± 0.22 mmol/L. For the same compound, the “triglyceride, percentage of average change compared with baseline” value ([2]; Group A, 30 mg (10 mg 3 times a day) oral, 24 weeks) was −6.54%, the “total bilirubin, percentage of average change compared with the baseline” value ([2]; Group A, 30 mg, 4 weeks) was 2.23% and the “total bilirubin, percentage of average change compared with the baseline” value ([2]; Group A, 30 mg, 8 weeks) was −3.15%. For the same compound, the “total bilirubin, percentage of average change compared with the baseline” value ([2]; Group A, 30 mg, 16 weeks) was −4.46%, the “low-density lipoprotein, average change value compared with baseline” value ([2]; Group A, 30 mg, 24 weeks) was 0.0062 and the “low-density lipoprotein, percentage of average change compared with baseline” value ([2]; Group A, 30 mg, 24 weeks) was −0.88%. For the same compound, the “total bilirubin levels, average decrease compared with the baseline” value (“total bilirubin levels, average decrease” below) ([2]; Group A, 30 mg, 24 weeks) was 8.91%, the “total bilirubin, percentage of average change compared with the baseline” value ([2]; Group A, 30 mg, 24 weeks) was −8.91% and the “triglyceride levels, average decrease compared with baseline” value (from here on “triglyceride levels, average decrease”) ([2]; Group A, 30 mg, 24 weeks) was 6.54%. For the same compound, the “serum high-density lipoprotein, average change value compared with baseline” value ([2]; Group A, 30 mg, 24 weeks) was 0.0063, the “serum high-density lipoprotein, percentage of average change compared with baseline” value ([2]; Group A, 30 mg, 24 weeks) was 1.45% and the “triglyceride, percentage of average change compared with baseline” value ([2]; Group B, 90 mg (30 mg 3 times a day) oral, 24 weeks) was −8.59%. For the same compound, the “total bilirubin, percentage of average change compared with the baseline” value ([2]; Group B, 90 mg, 4 weeks) was 2.18%, the “total bilirubin, percentage of average change compared with the baseline” value ([2]; Group B, 90 mg, 8 weeks) was −0.45% and the “total bilirubin, percentage of average change compared with the baseline” value ([2]; Group B, 90 mg, 16 weeks) was −8.28%. For the same compound, the “low-density lipoprotein, average change value compared with baseline” value ([2]; Group B, 90 mg, 24 weeks) was 0.1925, the “low-density lipoprotein, percentage of average change compared with baseline” value ([2]; Group B, 90 mg, 24 weeks) was 6.92% and the “total bilirubin levels, average decrease” value ([2]; Group B, 90 mg, 24 weeks) was 6.10%. The “total bilirubin, percentage of average change compared with the baseline” value ([2]; Group B, 90 mg, 24 weeks) was −6.10%, the “triglyceride levels, average decrease” value ([2]; Group B, 90 mg, 24 weeks) was 8.59% and the “serum high-density lipoprotein, average change value compared with baseline” value ([2]; Group B, 90 mg, 24 weeks) was 0.0938. For the same compound, the “serum high-density lipoprotein, percentage of average change compared with baseline” value ([2]; Group B, 90 mg, 24 weeks) was 7.77%, the “triglyceride, percentage of average change compared with baseline” value ([2]; Group D, 60 mg (20 mg 3 times a day) oral, 24 weeks) was −8.58% and the “total bilirubin, percentage of average change compared with the baseline” value ([2]; Group D, 60 mg, 4 weeks) was 5.21%. For the same compound, the “total bilirubin, percentage of average change compared with the baseline” value ([2]; Group D, 60 mg, 8 weeks) was 3.34%, the “total bilirubin, percentage of average change compared with the baseline” value ([2]; Group D, 60 mg, 16 weeks) was −1.82% and the “low-density lipoprotein, average change value compared with baseline” value ([2]; Group D, 60 mg, 24 weeks) was −0.0425. The “low-density lipoprotein, percentage of average change compared with baseline” value ([2]; Group D, 60 mg, 24 weeks) was 0.05%, the “total bilirubin levels, average decrease” value ([2]; Group D, 60 mg, 24 weeks) was 8.55% and the “total bilirubin, percentage of average change compared with the baseline” value ([2]; Group D, 60 mg, 24 weeks) was −8.55%. The “triglyceride levels, average decrease” value ([2]; Group D, 60 mg, 24 weeks) was 8.58%, the “serum high-density lipoprotein, average change value compared with baseline” value ([2]; Group D, 60 mg, 24 weeks) was 0.1013 and the “serum high-density lipoprotein, percentage of average change compared with baseline” value ([2]; Group D, 60 mg, 24 weeks) was 9.15%. For the same compound, the “high-density lipoprotein level, increase” value [3] was 10-20%, the “low density lipoprotein level, decrease” value [3] was 15-25% and the “total bilirubin level, decrease” value [3] was 15-25%. For the same compound, the “triglyceride level, decrease” value [3] was 15-25%, the “high-density lipoprotein level, increase” value [4] was 10-20% and the “low density lipoprotein level, decrease” value [4] was 10-25%. The “triglyceride level, decrease” value [4] was 10-25% and the “total bilirubin level, decrease” value [5] was 10-25%.
